Structures are written as SMILES.

Experimental findings from patent US20110059043A1, “CHEMICAL COMPOUNDS” (priority 2009, published 2011) are described below.

The target of data set [1] is T1, Recombinant HCV polymerase (BK strain) (Hepatitis C virus genotype 1b, UniProt P26663).
T1 construct: Recombinant HCV polymerase (BK strain) was expressed and purified from E. coli with a 21 amino acid C-terminal deletion; His6; made in house; host or cells: E. coli
The data set can be described thus: HCV polymerase enzyme assay (radiometric [33P]-UTP incorporation). Type of data set: biochemical, HCV 1b. The procedure, abridged:
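His6-tagged BK-strain NS5B lacking 21 C-terminal residues, expressed in E. coli, at 100 nM in Tris pH 7.5 with 5 mM MgCl2 and 3% DMSO. Substrates: 125 nM biotin-U13:0.63 μg/ml PolyA, 200 nM UTP plus [33P]-UTP; 100 min at 25° C. Incorporation read by streptavidin capture; IC50 from 8-point curve.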

Data set [2] concerns HCV replicon cells Huh 9B. The data set can be described thus: HCV replicon assay (luciferase). Type of data set: cell-based. The settings on record: Hepatitis C virus, reduction of replicon level by 50% vs untreated cell control, 72 h.
The test system of data set [3] is HCV replicon cells Huh 9B. Type of data set: cell-based. The settings on record: concentration reducing total cell area by 50% relative to DMSO controls; 72 h. In a few lines:
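Huh 9B replicon cells (luciferase-ubiquitin-neomycin fusion, EMCV-IRES-driven HCV polyprotein with adaptive mutations) were seeded from a 100,000 cells/ml suspension in G418-free medium, grown 24 h, then exposed to compound (dilutions at 1% DMSO) for 72 h at 37 °C. For toxicity, methylene blue staining was read at 620 nm and TD50 derived relative to DMSO controls.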

T1 sequence (P26663 2420-2989): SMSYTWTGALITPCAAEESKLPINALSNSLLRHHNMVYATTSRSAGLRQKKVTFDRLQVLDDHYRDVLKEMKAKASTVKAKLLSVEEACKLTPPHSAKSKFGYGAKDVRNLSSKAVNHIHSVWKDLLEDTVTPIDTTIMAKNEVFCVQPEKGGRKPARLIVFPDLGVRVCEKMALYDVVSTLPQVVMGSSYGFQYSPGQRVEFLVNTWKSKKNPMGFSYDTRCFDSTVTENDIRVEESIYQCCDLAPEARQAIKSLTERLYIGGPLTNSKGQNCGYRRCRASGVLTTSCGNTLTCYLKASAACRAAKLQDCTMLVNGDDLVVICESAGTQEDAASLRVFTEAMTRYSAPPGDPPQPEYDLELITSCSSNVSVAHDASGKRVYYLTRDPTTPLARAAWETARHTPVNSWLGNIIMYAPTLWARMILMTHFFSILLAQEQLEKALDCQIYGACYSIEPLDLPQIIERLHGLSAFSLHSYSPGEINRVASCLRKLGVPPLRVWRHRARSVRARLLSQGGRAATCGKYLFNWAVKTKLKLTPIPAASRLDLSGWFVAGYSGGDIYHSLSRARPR

Consider `CC(C)OCCOc1ncc(F)cc1C(=O)NC1N=C(c2c(Cl)cc(Cl)cc2Cl)c2ccccc2NC1=O` (stereo not drawn) [Example 36, 5-Fluoro-2-(2-isopropoxyethoxy)-N-(2-oxo-5-(2,4,6-trichlorophenyl)-2,3-dihydro-1H-benzo[e][1,4]diazepin-3-yl)nicotinamide], for which the IC50 stood at 0.244 µM in data set [1] and 0.307 µM in data set [2]. Also, the “Replicon Assay Value TD50” value in data set [3] was 13.55 µM.

In the case of `COCCOCCOc1ncc(F)cc1C(=O)NC1N=C(c2c(Cl)cc(Cl)cc2Cl)c2ccccc2NC1=O` (stereo not drawn) [Example 37, 5-Fluoro-2-(2-(2-methoxyethoxy)ethoxy)-N-(2-oxo-5-(2,4,6-trichlorophenyl)-2,3-dihydro-1H-benzo[e][1,4]diazepin-3-yl)nicotinamide], the IC50 in data set [1] stood at 0.102 µM; in data set [2] it was 0.263 µM. Also, in data set [3], the “Replicon Assay Value TD50” value worked out at 23.09 µM.

As for `COCCCOc1ncc(F)cc1C(=O)NC1N=C(c2c(Cl)cc(Cl)cc2Cl)c2ccccc2NC1=O` (stereo not drawn) [Example 38, 5-Fluoro-2-(3-methoxypropoxy)-N-(2-oxo-5-(2,4,6-trichlorophenyl)-2,3-dihydro-1H-benzo[e][1,4]diazepin-3-yl)nicotinamide], the IC50 was determined as 0.079 µM in data set [1] and 0.0157 µM in data set [2]. Further, in data set [3], the “Replicon Assay Value TD50” value stood at 22.269 µM.

For the molecule `CCOCCCOc1ncc(F)cc1C(=O)NC1N=C(c2c(Cl)cc(Cl)cc2Cl)c2ccccc2NC1=O` (stereo not drawn) [Example 39, 2-(3-Ethoxypropoxy)-5-fluoro-N-(2-oxo-5-(2,4,6-trichlorophenyl)-2,3-dihydro-1H-benzo[e][1,4]diazepin-3-yl)nicotinamide], the IC50 in data set [1] was 0.095 µM; in data set [2], 0.0663 µM. Also, the “Replicon Assay Value TD50” value in data set [3] was 11.83 µM.

With `COCCOc1nccc(C)c1C(=O)NC1N=C(c2c(Cl)cc(Cl)cc2Cl)c2ccccc2NC1=O` (stereo not drawn) [Example 40, 2-(2-Methoxyethoxy)-4-methyl-N-(2-oxo-5-(2,4,6-trichlorophenyl)-2,3-dihydro-1H-benzo[e][1,4]diazepin-3-yl)nicotinamide], the IC50 in data set [1] worked out at 2.96 µM; in data set [2], 0.856 µM. For the same molecule, the “Replicon Assay Value TD50” value in data set [3] is 24.518 µM.

Take `COCCN(C)c1ncc(F)cc1C(=O)NC1N=C(c2c(Cl)cc(Cl)cc2Cl)c2ccccc2NC1=O` (stereo not drawn) [Example 41, 5-Fluoro-2-((2-methoxyethyl)(methyl)amino)-N-(2-oxo-5-(2,4,6-trichlorophenyl)-2,3-dihydro-1H-benzo[e][1,4]diazepin-3-yl)nicotinamide]: the IC50 is 0.129 µM in data set [1] and 0.0247 µM in data set [2]. Also, the “Replicon Assay Value TD50” value in data set [3] amounted to 24.146 µM.

With `COCCNc1ncc(F)cc1C(=O)NC1N=C(c2c(Cl)cc(Cl)cc2Cl)c2ccccc2NC1=O` (stereo not drawn) [Example 42, 5-Fluoro-2-(2-methoxyethylamino)-N-(2-oxo-5-(2,4,6-trichlorophenyl)-2,3-dihydro-1H-benzo[e][1,4]diazepin-3-yl)nicotinamide], the values for the IC50 in data set [1] and in data set [2] were 0.969 µM and 2.64 µM, respectively. The “Replicon Assay Value TD50” value in data set [3] amounted to 17.784 µM.

For `CCN(CCOC)c1ncc(F)cc1C(=O)NC1N=C(c2c(Cl)cc(Cl)cc2Cl)c2ccccc2NC1=O` (stereo not drawn) [Example 43, 2-(Ethyl(2-methoxyethyl)amino)-5-fluoro-N-(2-oxo-5-(2,4,6-trichlorophenyl)-2,3-dihydro-1H-benzo[e][1,4]diazepin-3-yl)nicotinamide], the IC50 was 0.205 µM in data set [1] and 0.787 µM in data set [2]. Also, the “Replicon Assay Value TD50” value in data set [3] turned out to be 23.97 µM.

With `COCCN(c1ncc(F)cc1C(=O)NC1N=C(c2c(Cl)cc(Cl)cc2Cl)c2ccccc2NC1=O)C(C)C` (stereo not drawn) [Example 44, 5-Fluoro-2-(isopropyl(2-methoxyethyl)amino)-N-(2-oxo-5-(2,4,6-trichlorophenyl)-2,3-dihydro-1H-benzo[e][1,4]diazepin-3-yl)nicotinamide], the IC50 is 1.33 µM in data set [1] and 2.65 µM in data set [2]. Also, the “Replicon Assay Value TD50” value in data set [3] was found to be 23.394 µM.

On to `CCOCCN(CC)c1ncc(F)cc1C(=O)NC1N=C(c2c(Cl)cc(Cl)cc2Cl)c2ccccc2NC1=O` (stereo not drawn) [Example 45, 2-((2-Ethoxyethyl)(ethyl)amino)-5-fluoro-N-(2-oxo-5-(2,4,6-trichlorophenyl)-2,3-dihydro-1H-benzo[e][1,4]diazepin-3-yl)nicotinamide], for which the IC50 is 0.176 µM in data set [1] and 0.752 µM in data set [2]. Moreover, in data set [3], the “Replicon Assay Value TD50” value was found to be 18.864 µM.

Regarding `CN(CCOCC1CC1)c1ncc(F)cc1C(=O)NC1N=C(c2c(Cl)cc(Cl)cc2Cl)c2ccccc2NC1=O` (stereo not drawn) [Example 46, 2-((2-(Cyclopropylmethoxy)ethyl)(methyl)amino)-5-fluoro-N-(2-oxo-5-(2,4,6-trichlorophenyl)-2,3-dihydro-1H-benzo[e][1,4]diazepin-3-yl)nicotinamide], the IC50 was 0.168 µM in data set [1] and 0.151 µM in data set [2]. Further, the “Replicon Assay Value TD50” value in data set [3] turned out to be 15.961 µM.

For the molecule `COCCOc1ccc(Cl)cc1C(=O)NC1N=C(c2c(Cl)cccc2Cl)c2ccccc2NC1=O` (stereo not drawn) [Example 47, 5-Chloro-N-(5-(2,6-dichlorophenyl)-2-oxo-2,3-dihydro-1H-benzo[e][1,4]diazepin-3-yl)-2-(2-methoxyethoxy)benzamide], the figures for the IC50 in data set [1] and in data set [2] were 0.149 µM and 0.583 µM, respectively. The “Replicon Assay Value TD50” value in data set [3] is above 25 µM.

Take `COCCOc1ccc(F)cc1C(=O)NC1N=C(c2c(Cl)cccc2Cl)c2ccccc2NC1=O` (stereo not drawn) [Example 48, N-(5-(2,6-Dichlorophenyl)-2-oxo-2,3-dihydro-1H-benzo[e][1,4]diazepin-3-yl)-5-fluoro-2-(2-methoxyethoxy)benzamide]: the IC50 in data set [1] was determined as 0.155 µM; in data set [2], 0.703 µM. Besides, the “Replicon Assay Value TD50” value in data set [3] was above 25 µM.

`COCCOc1ccc(Cl)cc1C(=O)NC1N=C(c2c(Cl)cc(Cl)cc2CN2CCOCC2)c2ccccc2NC1=O` (stereo not drawn) [Example 49, 5-Chloro-N-(5-(2,4-dichloro-6-(morpholinomethyl)phenyl)-2-oxo-2,3-dihydro-1H-benzo[e][1,4]diazepin-3-yl)-2-(2-methoxyethoxy)benzamide]: the IC50 was determined as 0.829 µM in data set [1] and 0.167 µM in data set [2]. Also, the “Replicon Assay Value TD50” value in data set [3] worked out at 11.02 µM.

For the molecule `COCCOc1ccc(F)cc1C(=O)NC1N=C(c2c(Cl)cc(Cl)cc2CN2CCOCC2)c2ccccc2NC1=O` (stereo not drawn) [Example 50, N-(5-(2,4-Dichloro-6-(morpholinomethyl)phenyl)-2-oxo-2,3-dihydro-1H-benzo[e][1,4]diazepin-3-yl)-5-fluoro-2-(2-methoxyethoxy)benzamide], the IC50 is 0.666 µM in data set [1] and 0.208 µM in data set [2]. In data set [3], the “Replicon Assay Value TD50” value is 11.74 µM.

In the case of `COCCOc1ncc(Cl)cc1C(=O)NC1N=C(c2c(Cl)cc(Cl)cc2CN2CCOCC2)c2ccccc2NC1=O` (stereo not drawn) [Example 51, 5-Chloro-N-(5-(2,4-dichloro-6-(morpholinomethyl)phenyl)-2-oxo-2,3-dihydro-1H-benzo[e][1,4]diazepin-3-yl)-2-(2-methoxyethoxy)nicotinamide], the IC50 in data set [1] worked out at 1.23 µM; in data set [2], 0.281 µM. The “Replicon Assay Value TD50” value in data set [3] is above 25 µM.

On to `COCCOc1ncc(F)cc1C(=O)NC1N=C(c2c(Cl)cc(Cl)cc2CN2CCOCC2)c2ccccc2NC1=O` (stereo not drawn) [Example 52, N-(5-(2,4-Dichloro-6-(morpholinomethyl)phenyl)-2-oxo-2,3-dihydro-1H-benzo[e][1,4]diazepin-3-yl)-5-fluoro-2-(2-methoxyethoxy)nicotinamide], for which the figures for the IC50 in data set [1] and in data set [2] were 0.605 µM and 0.129 µM, respectively. Moreover, in data set [3], the “Replicon Assay Value TD50” value was found to be 24.829 µM.

For `COCCOc1ccc(F)cc1C(=O)NC1N=C(c2c(Cl)cc(Cl)cc2OC)c2ccccc2NC1=O` (stereo not drawn) [Example 53, N-(5-(2,4-Dichloro-6-methoxyphenyl)-2-oxo-2,3-dihydro-1H-benzo[e][1,4]diazepin-3-yl)-5-fluoro-2-(2-methoxyethoxy)benzamide], the IC50 in data set [1] stood at 0.154 µM; in data set [2], 0.0595 µM. Further, the “Replicon Assay Value TD50” value in data set [3] amounted to 24.827 µM.

As to `CCOCCOc1ncc(F)cc1C(=O)NC1N=C(c2c(Cl)cc(Cl)cc2OC)c2ccccc2NC1=O` (stereo not drawn) [Example 55, N-(5-(2,4-Dichloro-6-methoxyphenyl)-2-oxo-2,3-dihydro-1H-benzo[e][1,4]diazepin-3-yl)-2-(2-ethoxyethoxy)-5-fluoronicotinamide], the IC50 in data set [1] is 0.116 µM; in data set [2], 0.027 µM. For the same molecule, the “Replicon Assay Value TD50” value in data set [3] turned out to be 18.821 µM.

As to `CCOc1cc(Cl)cc(Cl)c1C1=NC(NC(=O)c2cc(F)ccc2OCCOC)C(=O)Nc2ccccc21` (stereo not drawn) [Example 56, N-(5-(2,4-Dichloro-6-ethoxyphenyl)-2-oxo-2,3-dihydro-1H-benzo[e][1,4]diazepin-3-yl)-5-fluoro-2-(2-methoxyethoxy)benzamide], the IC50 in data set [1] was determined as 0.153 µM; in data set [2] it was 0.0389 µM. For the same molecule, in data set [3], the “Replicon Assay Value TD50” value came out at 11.349 µM.

Take `CCOc1cc(Cl)cc(Cl)c1C1=NC(NC(=O)c2cc(F)cnc2OCCOC)C(=O)Nc2ccccc21` (stereo not drawn) [Example 57, N-(5-(2,4-Dichloro-6-ethoxyphenyl)-2-oxo-2,3-dihydro-1H-benzo[e][1,4]diazepin-3-yl)-5-fluoro-2-(2-methoxyethoxy)nicotinamide]: the IC50 in data set [1] is 0.072 µM; in data set [2], 0.0203 µM. The “Replicon Assay Value TD50” value in data set [3] was determined as 22.698 µM.
